Source: patent US10766929B2, “De novo designed hemagglutinin binding proteins” (UNIVERSITY OF WASHINGTON, priority 2017, dated 2020)
≈ marks a conversion by molar mass, not a printed value. Positions of bridges follow the written chain, without caps; N, C: chain ends. Residues, ends and D or L forms follow the SMILES beside them. No end group written: not given here.

How the values were obtained:
[1] = tested on: Virus Ft. Monmouth
[2] = tested on: Virus Ca0409
[3] = tested on: CA09 influenza virus; assay type: cell-based, influenza virus (Madin-Darby Canine Kidney Epithelial Cells)
[4] = tested on: flu virus strains Ca0409 and Ft. Monmout; conditions: both strains
[5] = tested on: PR8 influenza virus; assay type: cell-based, influenza virus (Madin-Darby Canine Kidney Epithelial Cells)
[6] = tested on: H1N1 (CA09) influenza virus; set-up: species or system Ferrets; conditions: in vivo
[7] = tested on: biotinylated HA proteins; assay type: physicochemical, influenza
[8] = tested on: A/California/04/09 (H1N1) (CA09); set-up: species or system BALB/c mice; conditions: mouse, in vivo

Molecule | EC50 for inhibition of viral replication in vitro [1] | EC50 for inhibition of viral replication in vitro [2] | EC50 fold lower than FI6v3 and HB36.6 on a mass basis [3] | EC50 versus FI6v3 and HB36.6 on a molar basis [3] | IC50 against flu virus strains Ca0409 and Ft. Monmout [4] | EC50 fold lower than FI6v3 and HB36.6 on a mass basis [5] | EC50 versus FI6v3 and HB36.6 on a molar basis [5] | changes in temperature [6] | clinical signs of disease [6] | weight loss [6] | loss of binding activity after high temperature exposure [7] | dose fold lower on a mass basis than the FI6v3 dose required for equivalent protection [8] | survival [8] | weight loss [8] | protection ([8]; iv)
CC[C@H](C)[C@@H]1NC(=O)[C@H](CCC(=O)O)NC(=O)[C@H](C)NC(=O)[C@H](C)NC(=O)[C@H]([C@@H](C)O)NC(=O)[C@H](CCC(N)=O)NC(=O)[C@H](C)NC(=O)[C@H](C)NC(=O)[C@H](Cc2ccccc2)NC(=O)[C@H](CC(C)C)NC(=O)[C@H]([C@@H](C)O)NC(=O)[C@H]([C@@H](C)O)NC(=O)[C@H](Cc2ccccc2)NC(=O)[C@H](CO)NC(=O)[C@H](CCC(N)=O)NC(=O)[C@H](CCC(=O)O)NC(=O)[C@H]([C@@H](C)CC)NC(=O)[C@@H](N)CSSC[C@@H](C(=O)O)NC(=O)[C@H](C(C)C)NC(=O)[C@H](Cc2c[nH]cn2)NC(=O)[C@H](CC(C)C)NC(=O)[C@H](CCCNC(=N)N)NC(=O)[C@H](Cc2c[nH]c3ccccc23)NC(=O)[C@H](CC(N)=O)NC(=O)CNC(=O)[C@H](CC(N)=O)NC(=O)[C@H](CC(=O)O)NC(=O)[C@H](CCC(N)=O)NC(=O)[C@H](CCSC)NC(=O)[C@H]([C@@H](C)CC)NC(=O)[C@H](CCCCN)NC(=O)[C@H](C(C)C)NC(=O)[C@H]([C@@H](C)O)NC(=O)[C@H](Cc2ccc(O)cc2)NC(=O)CNC(=O)[C@H](Cc2ccccc2)NC(=O)[C@H](C)NC(=O)[C@H](CCCNC(=N)N)NC(=O)[C@H](Cc2c[nH]c3ccccc23)NC1=O [AQW CS15989] (H-CIEQSFTTLFAAQTAAEIWRAFGYTVKIMQDNGNWRLHVC-OH; disulfide 1-40; N-terminus and C-terminus assumed) | 10 ng/mL | 10 ng/mL |  |  |  |  |  |  |  |  |  |  |  |  | 
CC[C@H](C)[C@@H]1NC(=O)[C@H](CCC(=O)O)NC(=O)[C@H](C)NC(=O)[C@H](C)NC(=O)[C@H]([C@@H](C)O)NC(=O)[C@H](CCC(N)=O)NC(=O)[C@@H]2CSSC[C@H](NC(=O)[C@H](CC(N)=O)NC(=O)CNC(=O)[C@H](CC(N)=O)NC(=O)[C@H](CC(=O)O)NC(=O)[C@H](C(C)C)NC(=O)[C@H](CCSC)NC(=O)[C@H]([C@@H](C)CC)NC(=O)[C@H](CCCCN)NC(=O)[C@H](C(C)C)NC(=O)[C@H]([C@@H](C)O)NC(=O)[C@H](Cc3ccc(O)cc3)NC(=O)CNC(=O)[C@H](Cc3ccccc3)NC(=O)[C@H](C)NC(=O)[C@H](CCCNC(=N)N)NC(=O)[C@H](Cc3c[nH]c4ccccc34)NC1=O)C(=O)N[C@@H](CCCNC(=N)N)C(=O)N[C@@H](CC(C)C)C(=O)N[C@@H](Cc1c[nH]cn1)C(=O)N[C@@H](C(C)C)C(=O)N[C@H](C(=O)O)CSSC[C@H](N)C(=O)N[C@@H]([C@@H](C)CC)C(=O)N[C@@H](CCC(=O)O)C(=O)N[C@@H](CCC(N)=O)C(=O)N[C@@H](CO)C(=O)N[C@@H](Cc1ccccc1)C(=O)N[C@@H]([C@@H](C)O)C(=O)N[C@@H]([C@@H](C)O)C(=O)N[C@@H](CC(C)C)C(=O)N[C@@H](Cc1ccccc1)C(=O)N[C@@H](C)C(=O)N2 [HB1.6928.2.3] (H-CIEQSFTTLFACQTAAEIWRAFGYTVKIMVDNGNCRLHVC-OH; disulfide 1-40, 12-35; N-terminus and C-terminus assumed) | 0.02 ng/mL |  | more than 100 fold | comparable | ~0.02 ng/mL (≈ 0.00441 nM) | more than 100 fold | comparable | no significant changes in temperature | minimal clinical signs of disease | no significant weight loss | no detectable loss of binding | 100 fold | 100% | < 10% | little protection
TIEQSFTTLFAAQTAAEIWRAFGYTVKIMQDNGNWRLHVT [TAWQT CS15990] | 2 ng/mL | 20 ng/mL |  |  |  |  |  |  |  |  |  |  |  |  | 
